Measurements taken from patent US7118895B2, “Process for producing aglycon by using diglycosidase and flavor-improved food containing the aglycon and converting agent to be used in the process” (Amano Enzyme Inc., priority 2000, dated 2006).

Tested on: Crude diglycosidase
Assay: Examination of temperature in the conversion into isoflavone aglycons by diglycosidase using soybean materials
Type: biochemical, Penicillium multicolor IAM7153
Parameters: Decomposition efficiency of glycitin family in roasted soy flour / Decomposition efficiency of daidzin family in roasted soy flour / Decomposition efficiency of genistin family in soymilk / Decomposition efficiency of daidzin family in soymilk / Decomposition efficiency of glycitin family in defatted soybean / Decomposition efficiency of daidzin family in defatted soybean: concentration or dose not given beside the values
Procedure, shortened: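 Temperature series (30-80° C.) of crude diglycosidase, diluted to 1.88 AU/mL in 20 mM acetate pH 4.0, acting on roasted soy flour, soymilk, defatted soybean or soy protein concentrate. Samples quenched with ethanol after 0-6 h, centrifuged, filtered and analyzed by HPLC for glycosides versus aglycons.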

[1] = 30° C., heat treatment of enzyme no, reaction time 0 h
[2] = 30° C., heat treatment of enzyme no, reaction time 1 h
[3] = 30° C., heat treatment of enzyme no, reaction time 3 h
[4] = 30° C., heat treatment of enzyme no, reaction time 6 h
[5] = 30° C., heat treatment of enzyme yes, reaction time 6 h
[6] = 45° C., heat treatment of enzyme no, reaction time 0 h
[7] = 45° C., heat treatment of enzyme no, reaction time 1 h
[8] = 45° C., heat treatment of enzyme no, reaction time 3 h
[9] = 45° C., heat treatment of enzyme no, reaction time 6 h
[10] = 45° C., heat treatment of enzyme yes, reaction time 6 h
[11] = 45 °C, heat treatment of enzyme: no, 0 h
[12] = 45 °C, heat treatment of enzyme: no, 1 h
[13] = 45 °C, heat treatment of enzyme: no, 3 h
[14] = 45 °C, heat treatment of enzyme: no, 6 h
[15] = 45 °C, heat treatment of enzyme: yes, 6 h
[16] = 55° C., heat treatment of enzyme no, reaction time 0 h
[17] = 55° C., heat treatment of enzyme no, reaction time 1 h
[18] = 55° C., heat treatment of enzyme no, reaction time 3 h
[19] = 55° C., heat treatment of enzyme no, reaction time 6 h
[20] = 55° C., heat treatment of enzyme yes, reaction time 6 h
[21] = 55 °C, heat treatment of enzyme: no, 0 h
[22] = 55 °C, heat treatment of enzyme: no, 1 h
[23] = 55 °C, heat treatment of enzyme: no, 3 h
[24] = 55 °C, heat treatment of enzyme: no, 6 h
[25] = 55 °C, heat treatment of enzyme: yes, 6 h
[26] = 65° C., heat treatment of enzyme no, reaction time 0 h
[27] = 65° C., heat treatment of enzyme no, reaction time 1 h
[28] = 65° C., heat treatment of enzyme no, reaction time 3 h
[29] = 65° C., heat treatment of enzyme no, reaction time 6 h
[30] = 65° C., heat treatment of enzyme yes, reaction time 6 h
[31] = 65 °C, heat treatment of enzyme: no, 0 h
[32] = 65 °C, heat treatment of enzyme: no, 1 h
[33] = 65 °C, heat treatment of enzyme: no, 3 h
[34] = 65 °C, heat treatment of enzyme: no, 6 h
[35] = 65 °C, heat treatment of enzyme: yes, 6 h
[36] = 80° C., heat treatment of enzyme no, reaction time 0 h
[37] = 80° C., heat treatment of enzyme no, reaction time 1 h
[38] = 80° C., heat treatment of enzyme no, reaction time 3 h
[39] = 80° C., heat treatment of enzyme no, reaction time 6 h
[40] = 80° C., heat treatment of enzyme yes, reaction time 6 h
[41] = 80 °C, heat treatment of enzyme: no, 0 h
[42] = 80 °C, heat treatment of enzyme: no, 1 h
[43] = 80 °C, heat treatment of enzyme: no, 3 h
[44] = 80 °C, heat treatment of enzyme: no, 6 h
[45] = 80 °C, heat treatment of enzyme: yes, 6 h

## O=c1c(-c2ccc(O)cc2)coc2cc(O[C@@H]3O[C@H](CO)[C@@H](O)[C@H](O)[C@H]3O)ccc12 [daidzin]
[1]
  Decomposition efficiency of daidzin family in concentrated soybean protein: 52.3%
  Decomposition efficiency of daidzin family in defatted soybean: 42.2%
[2]
  Decomposition efficiency of daidzin family in concentrated soybean protein: 29.5%
  Decomposition efficiency of daidzin family in defatted soybean: not detected
[3]
  Decomposition efficiency of daidzin family in concentrated soybean protein: 13.4%
  Decomposition efficiency of daidzin family in defatted soybean: not detected
[4]
  Decomposition efficiency of daidzin family in concentrated soybean protein: 4.0%
  Decomposition efficiency of daidzin family in defatted soybean: not detected
[5]
  Decomposition efficiency of daidzin family in concentrated soybean protein: 54.5%
  Decomposition efficiency of daidzin family in defatted soybean: not detected
30 °C, heat treatment of enzyme: no, 0 h
  Decomposition efficiency of daidzin family in soymilk: 34.1%
30 °C, heat treatment of enzyme: no, 1 h
  Decomposition efficiency of daidzin family in soymilk: not detected
30 °C, heat treatment of enzyme: no, 3 h
  Decomposition efficiency of daidzin family in soymilk: not detected
30 °C, heat treatment of enzyme: no, 6 h
  Decomposition efficiency of daidzin family in soymilk: not detected
30 °C, heat treatment of enzyme: yes, 6 h
  Decomposition efficiency of daidzin family in soymilk: 34.8%
35 °C, heat treatment of enzyme: no, 0 h
  Decomposition efficiency of daidzin family in roasted soy flour: 48.6%
35 °C, heat treatment of enzyme: no, 1 h
  Decomposition efficiency of daidzin family in roasted soy flour: 11.7%
35 °C, heat treatment of enzyme: no, 3 h
  Decomposition efficiency of daidzin family in roasted soy flour: not detected
35 °C, heat treatment of enzyme: no, 6 h
  Decomposition efficiency of daidzin family in roasted soy flour: not detected
35 °C, heat treatment of enzyme: yes, 6 h
  Decomposition efficiency of daidzin family in roasted soy flour: 50.3%
[6]
  Decomposition efficiency of daidzin family in concentrated soybean protein: 52.4%
  Decomposition efficiency of daidzin family in defatted soybean: 40.5%
[7]
  Decomposition efficiency of daidzin family in concentrated soybean protein: 10.6%
  Decomposition efficiency of daidzin family in defatted soybean: not detected
[8]
  Decomposition efficiency of daidzin family in concentrated soybean protein: 9.6%
  Decomposition efficiency of daidzin family in defatted soybean: not detected
[9]
  Decomposition efficiency of daidzin family in concentrated soybean protein: 1.7%
  Decomposition efficiency of daidzin family in defatted soybean: not detected
[10]
  Decomposition efficiency of daidzin family in concentrated soybean protein: 94.3%
  Decomposition efficiency of daidzin family in defatted soybean: not detected
[11]
  Decomposition efficiency of daidzin family in roasted soy flour: 48.6%
  Decomposition efficiency of daidzin family in soymilk: 33.9%
[12]
  Decomposition efficiency of daidzin family in roasted soy flour: 3.6%
  Decomposition efficiency of daidzin family in soymilk: 6.8%
[13]
  Decomposition efficiency of daidzin family in roasted soy flour: 2.7%
  Decomposition efficiency of daidzin family in soymilk: 6.9%
[14]
  Decomposition efficiency of daidzin family in roasted soy flour: 5.4%
  Decomposition efficiency of daidzin family in soymilk: 6.9%
[15]
  Decomposition efficiency of daidzin family in roasted soy flour: 49.4%
  Decomposition efficiency of daidzin family in soymilk: 36.0%
[16]
  Decomposition efficiency of daidzin family in concentrated soybean protein: 52.5%
  Decomposition efficiency of daidzin family in defatted soybean: 42.2%
[17]
  Decomposition efficiency of daidzin family in concentrated soybean protein: 1.0%
  Decomposition efficiency of daidzin family in defatted soybean: not detected
[18]
  Decomposition efficiency of daidzin family in concentrated soybean protein: not detected
  Decomposition efficiency of daidzin family in defatted soybean: not detected
[19]
  Decomposition efficiency of daidzin family in concentrated soybean protein: not detected
  Decomposition efficiency of daidzin family in defatted soybean: not detected
[20]
  Decomposition efficiency of daidzin family in concentrated soybean protein: 54.6%
  Decomposition efficiency of daidzin family in defatted soybean: not detected
[21]
  Decomposition efficiency of daidzin family in roasted soy flour: 48.8%
  Decomposition efficiency of daidzin family in soymilk: 34.2%
[22]
  Decomposition efficiency of daidzin family in roasted soy flour: not detected
  Decomposition efficiency of daidzin family in soymilk: not detected
[23]
  Decomposition efficiency of daidzin family in roasted soy flour: not detected
  Decomposition efficiency of daidzin family in soymilk: not detected
[24]
  Decomposition efficiency of daidzin family in roasted soy flour: not detected
  Decomposition efficiency of daidzin family in soymilk: not detected
[25]
  Decomposition efficiency of daidzin family in roasted soy flour: 51.1%
  Decomposition efficiency of daidzin family in soymilk: 40.7%
[26]
  Decomposition efficiency of daidzin family in concentrated soybean protein: 52.3%
  Decomposition efficiency of daidzin family in defatted soybean: 40.5%
[27]
  Decomposition efficiency of daidzin family in concentrated soybean protein: 1.8%
  Decomposition efficiency of daidzin family in defatted soybean: not detected
[28]
  Decomposition efficiency of daidzin family in concentrated soybean protein: 1.7%
  Decomposition efficiency of daidzin family in defatted soybean: not detected
[29]
  Decomposition efficiency of daidzin family in concentrated soybean protein: 1.7%
  Decomposition efficiency of daidzin family in defatted soybean: not detected
[30]
  Decomposition efficiency of daidzin family in concentrated soybean protein: 53.2%
  Decomposition efficiency of daidzin family in defatted soybean: 32.8%
[31]
  Decomposition efficiency of daidzin family in roasted soy flour: 48.6%
  Decomposition efficiency of daidzin family in soymilk: 34.1%
[32]
  Decomposition efficiency of daidzin family in roasted soy flour: not detected
  Decomposition efficiency of daidzin family in soymilk: not detected
[33]
  Decomposition efficiency of daidzin family in roasted soy flour: not detected
  Decomposition efficiency of daidzin family in soymilk: not detected
[34]
  Decomposition efficiency of daidzin family in roasted soy flour: not detected
  Decomposition efficiency of daidzin family in soymilk: not detected
[35]
  Decomposition efficiency of daidzin family in roasted soy flour: 49.7%
  Decomposition efficiency of daidzin family in soymilk: 48.7%
[36]
  Decomposition efficiency of daidzin family in concentrated soybean protein: 52.4%
  Decomposition efficiency of daidzin family in defatted soybean: 40.5%
[37]
  Decomposition efficiency of daidzin family in concentrated soybean protein: 22.6%
  Decomposition efficiency of daidzin family in defatted soybean: 7.8%
[38]
  Decomposition efficiency of daidzin family in concentrated soybean protein: 23.3%
  Decomposition efficiency of daidzin family in defatted soybean: 19.2%
[39]
  Decomposition efficiency of daidzin family in concentrated soybean protein: 25.5%
  Decomposition efficiency of daidzin family in defatted soybean: 30.4%
[40]
  Decomposition efficiency of daidzin family in concentrated soybean protein: 54.5%
  Decomposition efficiency of daidzin family in defatted soybean: 60.9%
[41]
  Decomposition efficiency of daidzin family in roasted soy flour: 48.6%
  Decomposition efficiency of daidzin family in soymilk: 33.9%
[42]
  Decomposition efficiency of daidzin family in roasted soy flour: 3.2%
  Decomposition efficiency of daidzin family in soymilk: 8.9%
[43]
  Decomposition efficiency of daidzin family in roasted soy flour: 4.4%
  Decomposition efficiency of daidzin family in soymilk: 23.9%
[44]
  Decomposition efficiency of daidzin family in roasted soy flour: 12.5%
  Decomposition efficiency of daidzin family in soymilk: 42.9%
[45]
  Decomposition efficiency of daidzin family in roasted soy flour: 51.3%
  Decomposition efficiency of daidzin family in soymilk: 69.5%
